Laboratory results taken from the NIST ThermoML archive (doi:10.1021/je100757w).
Where “and” joins values, the source holds several entries; their conditions need not be identical. Equal values may be shown once.

Experiment: xn = mol fraction of the nth substance listed
Settings: for surface tension liquid-gas: Ring tensiometer; for mass density: 101.3 kPa, Liquid

COCCOCCOCCOC [2,5,8,11-tetraoxadodecane] + O
Settings	mass density [kg/m3]	surface tension liquid-gas
298.15 K, x1 = 0.0012	–	53.35 mN/m
298.15 K, x1 = 0.0024	–	51.27 mN/m
298.15 K, x1 = 0.0029	–	49.07 mN/m
298.15 K, x1 = 0.0036	–	48.59 mN/m
298.15 K, x1 = 0.0043	–	47.6 mN/m
298.15 K, x1 = 0.0173	1006.22	–
298.15 K, x1 = 0.0206	–	40.6 mN/m
298.15 K, x1 = 0.0375	–	38.88 mN/m
298.15 K, x1 = 0.0695	–	36.2 mN/m
298.15 K, x1 = 0.0905	–	33.99 mN/m
298.15 K, x1 = 0.0914	1019.65	–
298.15 K, x1 = 0.1223	–	33.06 mN/m
298.15 K, x1 = 0.163	–	32.87 mN/m
298.15 K, x1 = 0.1739	1017.24	–
298.15 K, x1 = 0.2731	1009.97	–
298.15 K, x1 = 0.2911	–	32.23 mN/m
298.15 K, x1 = 0.3468	1004.7	–
298.15 K, x1 = 0.3517	–	31.66 mN/m
298.15 K, x1 = 0.4515	998.25	–
298.15 K, x1 = 0.4658	–	31.16 mN/m
298.15 K, x1 = 0.5727	992.4	–
298.15 K, x1 = 0.583	–	30.5 mN/m
298.15 K, x1 = 0.6451	989.7	–
298.15 K, x1 = 0.659	–	30.09 mN/m
298.15 K, x1 = 0.7279	–	29.54 mN/m
298.15 K, x1 = 0.7766	985.98	–
298.15 K, x1 = 0.821	–	29.05 mN/m
298.15 K, x1 = 0.8679	984.02	–
298.15 K, x1 = 0.8823	–	28.52 mN/m
298.15 K, x1 = 0.8977	983.45	–
298.15 K, x1 = 0.9461	–	28.04 mN/m
298.15 K, x1 = 0.9699	981.95	–
298.15 K, x1 = 1	981.23	27.56 mN/m
308.15 K, x1 = 0.0009	–	53.01 mN/m
308.15 K, x1 = 0.0017	–	50.04 mN/m
308.15 K, x1 = 0.0026	–	47.96 mN/m
308.15 K, x1 = 0.0039	–	45.41 mN/m
308.15 K, x1 = 0.0109	–	41.72 mN/m
308.15 K, x1 = 0.0173	1004.32	–
308.15 K, x1 = 0.0218	–	40.14 mN/m
308.15 K, x1 = 0.0353	–	38.28 mN/m
308.15 K, x1 = 0.0882	–	36.04 mN/m
308.15 K, x1 = 0.0914	1016.26	–
308.15 K, x1 = 0.1214	–	34.06 mN/m
308.15 K, x1 = 0.1739	1010.56	–
308.15 K, x1 = 0.1767	–	33.08 mN/m
308.15 K, x1 = 0.2497	–	32.48 mN/m and 31.82 mN/m
308.15 K, x1 = 0.2731	1001.13	–
308.15 K, x1 = 0.34	–	31.44 mN/m
308.15 K, x1 = 0.3468	995.27	–
308.15 K, x1 = 0.4141	–	30.89 mN/m
308.15 K, x1 = 0.4515	988.66	–
308.15 K, x1 = 0.5272	–	30.74 mN/m
308.15 K, x1 = 0.5727	982.92	–
308.15 K, x1 = 0.5837	–	30.15 mN/m
308.15 K, x1 = 0.6451	980.17	–
308.15 K, x1 = 0.7176	–	29.76 mN/m
308.15 K, x1 = 0.7766	976.39	–
308.15 K, x1 = 0.8234	–	29.38 mN/m
308.15 K, x1 = 0.8679	974.51	–
308.15 K, x1 = 0.8977	973.95	–
308.15 K, x1 = 0.9458	–	28.74 mN/m
308.15 K, x1 = 0.9699	972.46	–
308.15 K, x1 = 1	971.71	28.48 mN/m
318.15 K, x1 = 0.0014	–	51.81 mN/m
318.15 K, x1 = 0.0021	–	47.47 mN/m
318.15 K, x1 = 0.0028	–	46.1 mN/m
318.15 K, x1 = 0.0039	–	44.63 mN/m
318.15 K, x1 = 0.01	–	41.37 mN/m
318.15 K, x1 = 0.0173	998.53	–
318.15 K, x1 = 0.0212	–	39.06 mN/m
318.15 K, x1 = 0.034	–	37.85 mN/m
318.15 K, x1 = 0.0543	–	35.26 mN/m
318.15 K, x1 = 0.0791	–	32.67 mN/m
318.15 K, x1 = 0.0849	–	32.5 mN/m
318.15 K, x1 = 0.0914	1007.41	–
318.15 K, x1 = 0.0917	–	32.42 mN/m
318.15 K, x1 = 0.122	–	32.27 mN/m
318.15 K, x1 = 0.1739	1001.45	–
318.15 K, x1 = 0.1848	–	32.14 mN/m
318.15 K, x1 = 0.2728	–	31.26 mN/m
318.15 K, x1 = 0.2731	992.1	–
318.15 K, x1 = 0.3289	–	31.05 mN/m
318.15 K, x1 = 0.3468	986.06	–
318.15 K, x1 = 0.3776	–	30.83 mN/m
318.15 K, x1 = 0.4515	979.25	–
318.15 K, x1 = 0.4688	–	30.3 mN/m
318.15 K, x1 = 0.5727	973.34	–
318.15 K, x1 = 0.6451	970.59	–
318.15 K, x1 = 0.6611	–	29.59 mN/m
318.15 K, x1 = 0.7234	–	29.4 mN/m
318.15 K, x1 = 0.7766	966.82	–
318.15 K, x1 = 0.8102	–	28.99 mN/m
318.15 K, x1 = 0.8562	–	28.68 mN/m
318.15 K, x1 = 0.8679	964.92	–
318.15 K, x1 = 0.8915	–	28.3 mN/m
318.15 K, x1 = 0.8977	964.34	–
318.15 K, x1 = 0.9699	962.91	–
318.15 K, x1 = 1	962.19	27.83 mN/m

COCCOCCOC [2,5,8-trioxanonane] + O
Settings	mass density [kg/m3]	surface tension liquid-gas [mN/m]
298.15 K, x1 = 0.0047	–	49.27
298.15 K, x1 = 0.0141	–	44.11
298.15 K, x1 = 0.0188	1002.55	–
298.15 K, x1 = 0.0279	–	42.26
298.15 K, x1 = 0.0456	–	39.85
298.15 K, x1 = 0.0543	1006.8	–
298.15 K, x1 = 0.0874	–	35.99
298.15 K, x1 = 0.1184	–	31.62
298.15 K, x1 = 0.1289	1002.43	–
298.15 K, x1 = 0.1582	–	30.69
298.15 K, x1 = 0.1903	994.76	–
298.15 K, x1 = 0.2241	–	30.45
298.15 K, x1 = 0.3191	–	29.9
298.15 K, x1 = 0.3195	978.75	–
298.15 K, x1 = 0.4068	970.55	–
298.15 K, x1 = 0.4283	–	28.69
298.15 K, x1 = 0.4993	963.15	–
298.15 K, x1 = 0.5164	–	28.08
298.15 K, x1 = 0.621	955.66	–
298.15 K, x1 = 0.6493	–	27.9
298.15 K, x1 = 0.7181	950.74	–
298.15 K, x1 = 0.7841	–	26.77
298.15 K, x1 = 0.8097	946.27	–
298.15 K, x1 = 0.8737	–	26.29
298.15 K, x1 = 0.9099	942.33	–
298.15 K, x1 = 0.9228	–	25.69
298.15 K, x1 = 0.9551	940.97	–
298.15 K, x1 = 0.9704	–	25.19
298.15 K, x1 = 1	940.01	24.56
308.15 K, x1 = 0.0014	–	53.47
308.15 K, x1 = 0.0038	–	50.51
308.15 K, x1 = 0.0085	–	47.12
308.15 K, x1 = 0.0142	–	44.72
308.15 K, x1 = 0.0188	998.41	–
308.15 K, x1 = 0.0279	–	41.3
308.15 K, x1 = 0.0457	–	38.99
308.15 K, x1 = 0.0543	1001.43	–
308.15 K, x1 = 0.0875	–	33.65
308.15 K, x1 = 0.12	–	32.57
308.15 K, x1 = 0.1289	996.23	–
308.15 K, x1 = 0.1602	–	31.09
308.15 K, x1 = 0.1903	987.3	–
308.15 K, x1 = 0.2265	–	29.75
308.15 K, x1 = 0.3195	970.44	–
308.15 K, x1 = 0.3217	–	29.19
308.15 K, x1 = 0.4068	961.72	–
308.15 K, x1 = 0.4305	–	28.79
308.15 K, x1 = 0.4993	954.06	–
308.15 K, x1 = 0.5179	–	28.41
308.15 K, x1 = 0.621	945.87	–
308.15 K, x1 = 0.6498	–	28.3
308.15 K, x1 = 0.7181	940.7	–
308.15 K, x1 = 0.7831	–	27.7
308.15 K, x1 = 0.8097	936.34	–
308.15 K, x1 = 0.8744	–	27.58
308.15 K, x1 = 0.9099	932.39	–
308.15 K, x1 = 0.9165	–	27.54
308.15 K, x1 = 0.9551	931.05	–
308.15 K, x1 = 0.9645	–	27.43
308.15 K, x1 = 1	930.03	27.65
318.15 K, x1 = 0.0015	–	55.76
318.15 K, x1 = 0.0038	–	51.77
318.15 K, x1 = 0.0081	–	48.33
318.15 K, x1 = 0.0135	–	45.61
318.15 K, x1 = 0.0188	994.3	–
318.15 K, x1 = 0.0269	–	41.95
318.15 K, x1 = 0.0444	–	39.33
318.15 K, x1 = 0.0543	996.25	–
318.15 K, x1 = 0.0857	–	34.62
318.15 K, x1 = 0.1091	–	28.86
318.15 K, x1 = 0.1289	989.1	–
318.15 K, x1 = 0.156	–	26.65
318.15 K, x1 = 0.1903	979.79	–
318.15 K, x1 = 0.2194	–	25.34
318.15 K, x1 = 0.3174	–	24.45
318.15 K, x1 = 0.3195	961.72	–
318.15 K, x1 = 0.4068	952.75	–
318.15 K, x1 = 0.4248	–	24.26
318.15 K, x1 = 0.4993	944.64	–
318.15 K, x1 = 0.511	–	24.18
318.15 K, x1 = 0.621	936.5	–
318.15 K, x1 = 0.6513	–	23.87
318.15 K, x1 = 0.7181	931.28	–
318.15 K, x1 = 0.7915	–	23.64
318.15 K, x1 = 0.8097	926.76	–
318.15 K, x1 = 0.8844	–	23.5
318.15 K, x1 = 0.9099	922.58	–
318.15 K, x1 = 0.9137	–	23.48
318.15 K, x1 = 0.9547	–	23.46
318.15 K, x1 = 0.9551	921.12	–
318.15 K, x1 = 1	919.99	23.44
